Experimental data as given in patent publication US20060063755A1, “Loxapine analogs and methods of use thereof” (priority 2004, published 2006).
Where two headings read alike, the source gives them in different places.

Experiments:
alpha 2 receptors = test: Alpha 2 receptor binding assay; conditions: read-out: Ki Alpha2
Method: (§1) Binding assays were performed using the disclosed sleep-inducing agents and derivatives selected from those listed in Table 1 in competitive binding assays with known standards for the H1 histamine receptor, and the M1, M2, and M3 muscarinic receptors, alpha 1 and alpha 2 receptors, and D1 and D2 receptors.

M1 muscarinic receptor [1] = biological target: T1, M1 muscarinic receptor (Homo sapiens, UniProt P11229); test: M1 binding assay, [3H]-scopolamine N-methyl chloride, CHO cells; conditions: human recombinant
T1 construct: purchased PerkinElmer, Inc., Wellesley, Mass; host or cells: CHO cells
T1 sequence (P11229 1-460): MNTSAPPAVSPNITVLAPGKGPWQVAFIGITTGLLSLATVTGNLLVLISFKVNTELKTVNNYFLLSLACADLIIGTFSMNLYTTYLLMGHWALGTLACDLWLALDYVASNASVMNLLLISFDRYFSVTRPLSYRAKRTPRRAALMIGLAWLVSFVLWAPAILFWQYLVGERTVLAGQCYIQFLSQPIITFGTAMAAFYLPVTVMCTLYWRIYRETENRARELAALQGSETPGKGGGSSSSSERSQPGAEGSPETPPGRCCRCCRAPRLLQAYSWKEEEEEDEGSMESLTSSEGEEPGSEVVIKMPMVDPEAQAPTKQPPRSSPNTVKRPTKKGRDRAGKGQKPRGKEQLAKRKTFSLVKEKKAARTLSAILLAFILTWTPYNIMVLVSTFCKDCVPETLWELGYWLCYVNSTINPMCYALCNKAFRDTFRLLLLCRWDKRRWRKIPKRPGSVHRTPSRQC

Dopamine, D1 [2] = biological target: Dopamine, D1 (Homo sapiens, UniProt P21728); test: Dopamine D1 (human recombinant) binding assay
Sequence of Dopamine, D1 (Homo sapiens, UniProt P21728) (P21728 whole entry): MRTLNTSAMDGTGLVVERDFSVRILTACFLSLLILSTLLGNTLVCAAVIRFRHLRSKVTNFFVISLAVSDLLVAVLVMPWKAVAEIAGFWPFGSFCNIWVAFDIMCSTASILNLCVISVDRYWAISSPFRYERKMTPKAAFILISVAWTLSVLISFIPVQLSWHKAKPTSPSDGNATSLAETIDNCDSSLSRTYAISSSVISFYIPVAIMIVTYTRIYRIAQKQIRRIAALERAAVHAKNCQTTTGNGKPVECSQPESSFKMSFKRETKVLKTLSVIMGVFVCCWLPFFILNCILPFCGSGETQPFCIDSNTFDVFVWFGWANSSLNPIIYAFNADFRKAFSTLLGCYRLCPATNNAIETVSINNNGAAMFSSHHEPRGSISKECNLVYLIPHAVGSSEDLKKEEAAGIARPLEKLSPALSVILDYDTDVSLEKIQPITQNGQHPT
Method: as §1
Dopamine, D1 (human recombinant) binding assay was performed according to published procedures. See, e.g., Jarvie, et al. J. Recept Res., 13(1-4): 573-90 (1993); and Billard, et al. Life Sciences, 35(18): 1885-93 (1984), with modifications

D2 receptors [3] = biological target: D2 receptors (Rattus norvegicus, UniProt P61169); test: Dopamine D2 binding, rat
Sequence of D2 receptors (Rattus norvegicus, UniProt P61169) (P61169 whole entry): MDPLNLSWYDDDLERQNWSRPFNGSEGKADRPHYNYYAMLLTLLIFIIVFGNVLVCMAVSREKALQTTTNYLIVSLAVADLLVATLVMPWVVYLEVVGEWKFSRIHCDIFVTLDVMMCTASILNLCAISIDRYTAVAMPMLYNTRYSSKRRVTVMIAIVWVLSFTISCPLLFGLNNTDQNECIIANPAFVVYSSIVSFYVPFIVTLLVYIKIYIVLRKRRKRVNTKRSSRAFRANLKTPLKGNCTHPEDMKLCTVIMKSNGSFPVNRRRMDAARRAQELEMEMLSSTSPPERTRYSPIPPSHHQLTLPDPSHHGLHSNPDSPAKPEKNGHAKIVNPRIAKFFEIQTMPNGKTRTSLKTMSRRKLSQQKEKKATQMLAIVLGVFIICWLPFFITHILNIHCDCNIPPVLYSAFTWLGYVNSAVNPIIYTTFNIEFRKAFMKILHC
Method: as §1

alpha 1 receptors = test: Alpha 1 receptor binding assay; conditions: read-out: Ki Alpha1
Method: as §1

Dopamine, D1 [4] = biological target: Dopamine, D1 (Rattus norvegicus, UniProt P18901); test: Dopamine D1 binding, rat
Sequence of Dopamine, D1 (Rattus norvegicus, UniProt P18901) (P18901 whole entry): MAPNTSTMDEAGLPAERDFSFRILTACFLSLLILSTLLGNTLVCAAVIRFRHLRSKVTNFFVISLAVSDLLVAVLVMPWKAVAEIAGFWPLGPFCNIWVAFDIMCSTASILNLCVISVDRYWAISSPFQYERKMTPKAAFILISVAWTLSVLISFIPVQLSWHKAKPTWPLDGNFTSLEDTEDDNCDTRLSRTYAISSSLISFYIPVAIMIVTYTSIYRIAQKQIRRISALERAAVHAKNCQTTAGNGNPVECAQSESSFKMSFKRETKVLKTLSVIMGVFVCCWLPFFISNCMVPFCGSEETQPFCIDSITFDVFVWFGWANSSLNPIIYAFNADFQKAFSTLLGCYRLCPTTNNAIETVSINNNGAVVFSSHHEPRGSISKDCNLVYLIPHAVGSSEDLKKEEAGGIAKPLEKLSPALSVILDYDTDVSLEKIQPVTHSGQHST
Method: as §1

M3 muscarinic receptor = biological target: T2, M3 muscarinic receptor (Homo sapiens, UniProt P20309); test: M3 binding assay, [3H]-scopolamine N-methyl chloride, CHO cells; conditions: human recombinant
T2 construct: purchased PerkinElmer, Inc., Wellesley, Mass; host or cells: CHO cells
T2 sequence (P20309 whole entry): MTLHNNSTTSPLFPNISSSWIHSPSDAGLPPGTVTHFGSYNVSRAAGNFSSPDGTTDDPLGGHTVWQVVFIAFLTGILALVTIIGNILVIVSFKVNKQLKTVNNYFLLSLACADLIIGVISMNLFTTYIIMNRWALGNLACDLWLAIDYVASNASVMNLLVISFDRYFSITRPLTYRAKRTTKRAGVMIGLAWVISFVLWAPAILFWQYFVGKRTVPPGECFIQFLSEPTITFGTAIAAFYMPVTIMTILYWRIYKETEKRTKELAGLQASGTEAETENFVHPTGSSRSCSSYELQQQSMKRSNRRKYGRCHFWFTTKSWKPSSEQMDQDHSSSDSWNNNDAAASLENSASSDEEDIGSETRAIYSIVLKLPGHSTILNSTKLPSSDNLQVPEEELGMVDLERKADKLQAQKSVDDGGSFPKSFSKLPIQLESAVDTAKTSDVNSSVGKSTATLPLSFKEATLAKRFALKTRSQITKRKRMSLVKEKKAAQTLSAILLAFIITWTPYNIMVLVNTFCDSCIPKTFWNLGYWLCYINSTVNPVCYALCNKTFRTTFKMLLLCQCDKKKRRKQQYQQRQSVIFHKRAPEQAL

M2 muscarinic receptor = biological target: T3, M2 muscarinic receptor (Homo sapiens, UniProt P08172); test: M2 binding assay, [3H]-scopolamine N-methyl chloride, CHO cells; conditions: human recombinant
T3 construct: purchased PerkinElmer, Inc., Wellesley, Mass; host or cells: CHO cells
T3 sequence (P08172 1-466): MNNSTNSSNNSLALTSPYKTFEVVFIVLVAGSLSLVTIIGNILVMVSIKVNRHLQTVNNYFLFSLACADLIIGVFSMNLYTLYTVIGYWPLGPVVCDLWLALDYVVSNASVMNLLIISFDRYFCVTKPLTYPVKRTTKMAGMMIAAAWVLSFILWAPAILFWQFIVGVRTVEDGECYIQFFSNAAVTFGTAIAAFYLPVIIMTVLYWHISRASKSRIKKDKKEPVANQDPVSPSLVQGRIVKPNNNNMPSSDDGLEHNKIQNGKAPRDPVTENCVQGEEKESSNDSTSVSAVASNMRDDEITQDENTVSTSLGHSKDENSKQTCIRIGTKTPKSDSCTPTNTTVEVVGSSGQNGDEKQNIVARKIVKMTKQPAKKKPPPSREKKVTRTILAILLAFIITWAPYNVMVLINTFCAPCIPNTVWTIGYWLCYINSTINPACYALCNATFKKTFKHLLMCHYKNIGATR

D2 receptors [5] = biological target: D2 receptors (Homo sapiens, UniProt P14416); test: Dopamine D2 binding assay (human)
Sequence of D2 receptors (Homo sapiens, UniProt P14416) (P14416 whole entry): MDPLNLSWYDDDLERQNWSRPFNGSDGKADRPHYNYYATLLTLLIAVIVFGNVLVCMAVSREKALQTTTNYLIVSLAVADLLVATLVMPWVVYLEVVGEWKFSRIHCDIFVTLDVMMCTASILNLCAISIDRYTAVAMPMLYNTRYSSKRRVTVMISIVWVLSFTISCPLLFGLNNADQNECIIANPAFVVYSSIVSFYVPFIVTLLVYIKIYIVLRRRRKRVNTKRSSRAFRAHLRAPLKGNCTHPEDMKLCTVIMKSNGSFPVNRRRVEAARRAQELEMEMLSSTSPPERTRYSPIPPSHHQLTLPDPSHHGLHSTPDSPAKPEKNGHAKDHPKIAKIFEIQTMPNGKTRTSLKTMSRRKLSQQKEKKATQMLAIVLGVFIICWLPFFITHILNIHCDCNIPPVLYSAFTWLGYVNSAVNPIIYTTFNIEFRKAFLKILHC
Method: as §1, with “receptors. […]” for “receptors.”

H1 histamine receptor [6] = biological target: T4, H1 histamine receptor (Bos taurus, UniProt P30546); test: H1 competitive binding assay, [3H]pyrilamine, bovine cerebellar membranes; conditions: bovine cerebellar membrane
T4 construct: the receptors were obtained from bovine cerebellar membrane tissue; from tissue; host or cells: bovine cerebellar membranes
T4 sequence (P30546 whole entry): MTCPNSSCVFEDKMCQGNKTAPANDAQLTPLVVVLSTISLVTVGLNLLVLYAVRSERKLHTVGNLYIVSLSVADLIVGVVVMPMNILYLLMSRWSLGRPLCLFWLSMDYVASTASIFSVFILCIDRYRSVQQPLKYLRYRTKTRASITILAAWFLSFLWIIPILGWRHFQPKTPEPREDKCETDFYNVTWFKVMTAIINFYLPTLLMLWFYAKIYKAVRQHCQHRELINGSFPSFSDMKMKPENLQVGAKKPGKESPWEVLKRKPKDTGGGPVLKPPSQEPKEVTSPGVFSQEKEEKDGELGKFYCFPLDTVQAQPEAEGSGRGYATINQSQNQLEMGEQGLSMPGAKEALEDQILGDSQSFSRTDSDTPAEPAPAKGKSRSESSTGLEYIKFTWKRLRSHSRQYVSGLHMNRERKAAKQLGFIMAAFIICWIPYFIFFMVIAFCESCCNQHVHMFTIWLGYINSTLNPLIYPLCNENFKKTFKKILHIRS

male Wistar rats = test: Sleep-wakefulness monitoring (SCORE-2000, EEG/EMG) after oral dosing at CT-18; format: in vivo, rat
Method: Food and water were available ad libitum.
Treatments were administered orally as a bolus.
A parallel group study design was employed.
The results of NREM and LUSB parameters were measured for the loxapine derivatives such as Compounds 1, 2, 3, 5, 6, 7, 8, 9, 10, 12, 14, 17, 19, 20, 21, 23, 30, 31, 32, 39, 40, 42, 46, 50, 51, 52, 54, 56, and 58 and other compounds listed in Table 1.

H1 histamine receptor [7] = biological target: H1 histamine receptor (Homo sapiens, UniProt P35367); test: H1 binding, human (footnote of Table 8)
Sequence of H1 histamine receptor (Homo sapiens, UniProt P35367) (P35367 whole entry): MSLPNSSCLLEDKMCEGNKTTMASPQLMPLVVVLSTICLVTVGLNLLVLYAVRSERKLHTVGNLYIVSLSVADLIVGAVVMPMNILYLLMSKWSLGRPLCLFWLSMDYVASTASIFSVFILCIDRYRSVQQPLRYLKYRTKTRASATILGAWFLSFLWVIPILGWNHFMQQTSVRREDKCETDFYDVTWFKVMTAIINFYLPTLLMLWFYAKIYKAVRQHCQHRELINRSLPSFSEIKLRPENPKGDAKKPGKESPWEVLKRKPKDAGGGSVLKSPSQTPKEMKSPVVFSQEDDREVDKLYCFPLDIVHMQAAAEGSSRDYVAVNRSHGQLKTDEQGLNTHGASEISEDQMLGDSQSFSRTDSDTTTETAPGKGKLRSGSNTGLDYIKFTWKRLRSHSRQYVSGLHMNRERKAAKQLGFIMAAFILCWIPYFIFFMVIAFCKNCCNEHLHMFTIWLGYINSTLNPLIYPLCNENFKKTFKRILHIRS
Method: as §1

H1 histamine receptor [8] = biological target: H1 histamine receptor (Rattus norvegicus, UniProt P31390); test: H1 binding, rat (footnote of Table 8)
Sequence of H1 histamine receptor (Rattus norvegicus, UniProt P31390) (P31390 whole entry): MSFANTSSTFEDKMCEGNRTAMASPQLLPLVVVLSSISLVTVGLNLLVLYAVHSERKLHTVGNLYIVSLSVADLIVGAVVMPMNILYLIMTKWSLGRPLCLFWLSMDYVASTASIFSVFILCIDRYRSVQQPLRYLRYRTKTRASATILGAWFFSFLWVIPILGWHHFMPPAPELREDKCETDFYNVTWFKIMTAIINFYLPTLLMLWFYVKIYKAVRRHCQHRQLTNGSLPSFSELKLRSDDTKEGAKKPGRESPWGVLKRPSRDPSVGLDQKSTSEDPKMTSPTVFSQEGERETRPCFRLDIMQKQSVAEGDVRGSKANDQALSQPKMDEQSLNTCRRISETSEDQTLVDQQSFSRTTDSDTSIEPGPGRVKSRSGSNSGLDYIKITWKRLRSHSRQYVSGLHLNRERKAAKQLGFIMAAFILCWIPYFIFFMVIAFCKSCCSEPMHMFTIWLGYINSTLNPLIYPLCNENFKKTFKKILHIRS
Method: as §1

hERG channel = hERG channel (Homo sapiens, UniProt Q12809); test: hERG channel current block, whole cell recording in HEK293 cells; format: cell-based; conditions: HEK293 cells expressing hERG
Sequence of hERG channel (Q12809 whole entry): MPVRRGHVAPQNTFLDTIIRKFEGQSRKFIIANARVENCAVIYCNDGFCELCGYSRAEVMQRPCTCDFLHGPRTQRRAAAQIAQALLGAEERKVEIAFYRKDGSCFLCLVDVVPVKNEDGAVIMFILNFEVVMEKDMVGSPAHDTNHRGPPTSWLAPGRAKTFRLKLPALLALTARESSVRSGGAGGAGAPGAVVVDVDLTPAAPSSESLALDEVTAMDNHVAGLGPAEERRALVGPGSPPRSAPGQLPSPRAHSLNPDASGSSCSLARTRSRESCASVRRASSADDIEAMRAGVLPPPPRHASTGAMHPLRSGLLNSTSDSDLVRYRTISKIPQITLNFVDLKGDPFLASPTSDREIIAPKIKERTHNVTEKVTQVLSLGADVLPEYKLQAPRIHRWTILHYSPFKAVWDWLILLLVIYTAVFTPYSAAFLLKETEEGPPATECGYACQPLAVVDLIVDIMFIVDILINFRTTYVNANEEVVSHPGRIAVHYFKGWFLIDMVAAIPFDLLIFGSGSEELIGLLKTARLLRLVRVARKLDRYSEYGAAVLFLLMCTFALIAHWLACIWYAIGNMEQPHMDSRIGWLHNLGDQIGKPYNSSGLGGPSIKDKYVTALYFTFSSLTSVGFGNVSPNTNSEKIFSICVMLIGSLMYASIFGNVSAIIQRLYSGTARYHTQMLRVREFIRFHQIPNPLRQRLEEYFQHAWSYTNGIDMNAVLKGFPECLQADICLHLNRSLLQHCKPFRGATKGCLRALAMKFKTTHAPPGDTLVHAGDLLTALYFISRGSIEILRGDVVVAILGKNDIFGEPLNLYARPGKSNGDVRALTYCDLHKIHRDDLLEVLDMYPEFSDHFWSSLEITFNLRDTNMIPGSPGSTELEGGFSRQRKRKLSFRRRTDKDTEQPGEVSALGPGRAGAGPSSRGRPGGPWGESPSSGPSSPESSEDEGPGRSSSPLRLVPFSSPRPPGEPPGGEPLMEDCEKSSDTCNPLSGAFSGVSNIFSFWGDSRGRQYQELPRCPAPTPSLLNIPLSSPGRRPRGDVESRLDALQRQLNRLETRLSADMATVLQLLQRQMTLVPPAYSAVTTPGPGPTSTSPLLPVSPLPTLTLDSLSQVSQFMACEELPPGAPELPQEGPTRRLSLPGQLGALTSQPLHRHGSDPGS
Method: Other in vitro selection criteria for loxapine analogs of the invention includes hERG binding.
(Brown and Rampe (2000)).
In one embodiment of the HERG assay, the positive control (i.e., reference compound) is terfenadine (Sigma, St. Louis Mo.), which has been shown, at a concentration of 60 nM, to block HERG current by approximately 75%. Test compounds are delivered in HEPES-buffered physiological saline (HB-PS)+0.1% dimethyl sulfoxide (DMSO).
Clin. Exp. Allergy 29 Suppl 3, 174-181.
If the final DMSO concentration must be greater than 0.3%, to reach a specified test article concentration, a separate vehicle control test with an n>2 was performed at the highest final DMSO concentration.
Each cell acted as its own control. […] One concentration of the positive control article (60 nM terfenadine) was applied to two cells (n≧2).

M1 muscarinic receptor [9] = biological target: T1, M1 muscarinic receptor; conditions: reference compounds; read-out: Ki of reference compounds, M1 binding assay; cited from earlier work

Ki (alpha 2 receptors) [µM] | Ki (M1 muscarinic receptor [1]) [µM] | Ki (Dopamine, D1 [2]) [µM] | Ki (D2 receptors [3]) [µM] | Ki (alpha 1 receptors) [µM] | Ki (Dopamine, D1 [4]) [µM] | Ki (M3 muscarinic receptor) [µM] | Ki (M2 muscarinic receptor) [µM] | Ki (D2 receptors [5]) [µM] | Ki (H1 histamine receptor [6]) [µM] | Ki (H1 histamine receptor [7]) [µM] | Ki (H1 histamine receptor [8]) [µM] | Compound | NREM (male Wistar rats; dose 30 mg/kg) [min] | hERG at 10 micromolar (% blocking of the hERG channel) (hERG channel) [%] | NREM (male Wistar rats; dose 3 mg/kg) [min] | Ki (M1 muscarinic receptor [9]) [µM]
> 10 | > 10 | > 10 | > 10 | > 10 | > 10 | > 10 | > 10 | 1.87 | 0.0228 | 0.0317 | 0.0588 | CC(C)(CN1CCN(C2=Nc3ccccc3Oc3ccccc32)CC1)C(=O)NS(C)(=O)=O [Compound 40] | 43 ± 4 | 5.6 |  | 
> 10 | > 10 | > 10 | 2.73 | > 10 |  | > 10 |  | > 10 |  |  |  | CC(C)(CN1CCN(C2=Nc3ccccc3Oc3ccc(F)cc32)CC1)C(=O)O [Compound 4] |  | 8 |  | 
> 10 | > 10 | > 10 | > 10 | > 10 | > 10 | > 10 | > 10 | > 10 | 0.0403 | 0.0237 | 0.0115 | CC(C)(CN1CCN(C2=Nc3ccccc3Oc3ccccc32)CC1)C(=O)O [Compound 1] |  | 6.2 | 39 ± 6 | 
 |  |  |  |  |  |  |  |  |  |  |  | C[N+]1(C)CCC(OC(=O)C(c2ccccc2)c2ccccc2)CC1 [4-DAMP methiodide] |  |  |  | 0.00027
> 10 | > 10 | 0.942 |  | > 10 |  | > 10 | > 10 | > 10 | 0.283 |  |  | CC(C)(CN1CCN(C2=Nc3ccccc3Oc3ccc(O)cc32)CC1)C(=O)O [Compound 14] |  | 0.30 |  | 
> 10 | > 10 | 3.35 |  | > 10 |  | > 10 | > 10 | 0.434 | 0.0117 |  |  | CC(C)(CN1CCN(C2=Nc3ccccc3Oc3ccc(Br)cc32)CC1)C(=O)O [Compound 8] |  | 49 |  | 
> 10 | > 10 | 4.52 |  | 3.02 |  | > 10 | > 10 | 1.61 | 0.0239 |  |  | CC(C)(CN1CCN(C2=Nc3ccccc3Oc3ccc(Cl)cc32)CC1)C(=O)O [Compound 5] |  | 36 |  | 
> 10 | > 10 | 1.12 |  | > 10 |  | > 10 | > 10 | 0.0533 | 0.036 |  |  | O=C(O)C1(CN2CCN(C3=Nc4ccccc4Oc4ccc(Br)cc43)CC2)CC1 [Compound 9] |  | 59 |  | 
> 10 | > 10 | > 10 |  | > 10 |  | > 10 | > 10 | > 10 | 0.0572 |  |  | COc1ccc2c(c1)N=C(N1CCN(CC(C)(C)C(=O)O)CC1)c1ccccc1O2 [Compound 21] |  | 0 |  | 
> 10 | > 10 | > 10 |  | > 10 |  | > 10 | > 10 | > 10 | 0.0987 |  |  | COc1ccc2c(c1)Oc1ccccc1N=C2N1CCN(CC(C)(C)C(=O)O)CC1 [Compound 39] |  | 61.40 |  | 
> 10 | > 10 | 6.8 |  | > 10 |  | > 10 | > 10 | 3.16 | 0.0395 |  |  | Cc1ccc2c(c1)N=C(N1CCN(CC(C)(C)C(=O)O)CC1)c1ccccc1O2 [Compound 19] |  | 9.90 |  | 
1.95 | > 10 | 1.14 |  | 0.595 |  | > 10 | > 10 | 0.36 | 0.0318 |  |  | Cc1ccc2c(c1)C(N1CCN(CC(C)(C)C(=O)O)CC1)=Nc1cc(Br)ccc1O2 [Compound 50] |  | 45.00 |  | 
> 10 | > 10 | 4.92 |  | > 10 |  | > 10 | > 10 | 1.19 | 0.00733 |  |  | CC(C)(CCN1CCN(C2=Nc3ccccc3Oc3ccccc32)CC1)C(=O)O [Compound 3] |  | 3.8 |  | 
0.966 | > 10 | 1.04 |  | 0.148 |  | > 10 | > 10 | 0.17 | 0.0278 |  |  | COc1ccc2c(c1)C(N1CCN(CC(C)(C)C(=O)O)CC1)=Nc1cc(Br)ccc1O2 [Compound 51] |  | 32 |  | 
